Experimental data published in patent US11793845B2, “Composition for ameliorating peripheral sensory neuropathy” (KINKI UNIVERSITY, priority 2016, dated 2023).

Key:
Assay type in all cases: in vivo
[1] = tested on: Peripheral Sensory Neuropathy Induced by Bortezomib in Mice; experiment: von Frey test, bortezomib-induced peripheral sensory neuropathy; conditions: bortezomib 1 mg/kg once a week alone, compared with control group; three days after the administration
Excerpt: (§1) The mice in the three groups in the above (1) were put in a cage and a filament having a strength of 0.16 g was pressed on the plantar surface of the leg to measure the number of times (a score) of avoidance response.
(§2) In the present test, the mice were divided into three groups by a difference in test objects. As in Example 1, male Balb/c mice of 6 to 7 weeks old were used. The mice were divided into a total of three groups, a control group, a bortezomib administration group, and a bortezomib and Lentinus edodes mycelium extract administration group (bortezomib+Lentinus edodes mycelium extract administration group).
(§3) Bortezomib was administered to each mouse once a day at a dose of 1 mg/kg. Further, the Lentinus edodes mycelium extract was administered to each mouse once a day at a dose of 2 g/kg.
Further, the number of times of administration was set to once a week (on Day 0, Day 7, and Day 14) for bortezomib and daily (from Day 0 to Day 15) for the Lentinus edodes mycelium extract in both the von Frey test and the cold plate test below.
Evaluation was performed in the same manner as in the test with oxaliplatin in Example 1. Referring to FIG. 7, the horizontal axis indicates an elapsed time after administration (days) and the vertical axis indicates the avoidance response (scores). Open circles with a solid line represent the control group. Filled circles with a solid line represent the group in which only bortezomib was administered. Open squares with a dash line represent the group in which bortezomib and the Lentinus edodes mycelium extract were administered at the same time (bortezomib+Lentinus edodes mycelium extract administration group). When the difference with the control group was determined to be significant using a significance level of 5%, the data were marked by “*”.
(§4) In the present test, the mice were divided into six groups by a difference in test objects. As in Example 1, male Balb/c mice of 6 to 7 weeks old were used. […]

[2] = tested on: Peripheral Sensory Neuropathy Induced by Bortezomib in Mice; experiment: cold plate test, bortezomib-induced peripheral sensory neuropathy; conditions: bortezomib 1 mg/kg once a day alone; Day 3
Protocol: (§5) The effect of the Lentinus edodes mycelium extract on the paresthesia to cold stimulation was tested by performing the cold plate test. The mice in the three groups in the above (1) were put on a cold plate set to 10° C. and a response time for avoidance (a latency) was measured. The shorter latency means that the mouse avoids the cold stimulation of the cold plate more.
as §2, §3
Evaluation was performed in the same manner as in the test with oxaliplatin in Example 1. Referring to FIG. 8, the horizontal axis indicates the elapsed time after administration (days) and the vertical axis indicates the avoidance response time (seconds). Open circles with a solid line represent the control group. Filled circles with a solid line represent the group in which only bortezomib was administered. Open squares with a dash line represent the group in which bortezomib and the Lentinus edodes mycelium extract were administered at the same time (bortezomib+Lentinus edodes mycelium extract administration groups). When the difference with the control group was determined to be significant using a significance level of 5%, the data were marked by “*”.
as §4

[3] = tested on: Peripheral Sensory Neuropathy Induced by Oxaliplatin in Mice; experiment: von Frey test, oxaliplatin-induced peripheral sensory neuropathy; conditions: oxaliplatin 6 mg/kg once a week alone, compared with control group; 0.16 g filament
Protocol: (§7) Male Balb/c mice of 6 to 7 weeks old were used. The mice were divided into three groups: a control group, an oxaliplatin administration group, and an oxaliplatin and Lentinus edodes mycelium extract administration group (oxaliplatin+Lentinus edodes mycelium extract administration group). Oxaliplatin was administered to each mouse once a day at a dose of 6 mg/kg. Further, the Lentinus edodes mycelium extract was administered to each mouse once a day at a dose of 2 g/kg.
(§8) Further, the number of times of administration was set to once a week (on Day 0, Day 7, and Day 14) for oxaliplatin and daily (from Day 0 to Day 15) for the Lentinus edodes mycelium extract in both the von Frey test and the cold plate test below.
The higher number of times of avoidance means that the mouse avoids the stimulation by the filament more. […] When the difference with the control group was determined to be significant using a significance level of 5%, the data were marked by “*”.

[4] = tested on: Peripheral Sensory Neuropathy Induced by Oxaliplatin in Mice; experiment: cold plate test, oxaliplatin-induced peripheral sensory neuropathy; conditions: oxaliplatin 6 mg/kg once a week alone; Day 3; cold plate 10° C.
Protocol: as §7, §8
Oxaliplatin was administered to each mouse once a day at a dose of 6 mg/kg. Further, the Lentinus edodes mycelium extract was administered to each mouse once a day at a dose of 2 g/kg three days or six days after the administration of oxaliplatin. These groups are referred to as “Lentinus edodes mycelium extract 3-day delayed administration group” and “Lentinus edodes mycelium extract 6-day delayed administration group”, respectively.
Further, groups in which duloxetine was administered after the administration of oxaliplatin were prepared for comparison.

[5] = tested on: Peripheral Sensory Neuropathy Induced by Vincristine in Mice; experiment: von Frey test, vincristine-induced peripheral sensory neuropathy; conditions: vincristine 0.2 mg/kg once a week alone, compared with control group; three days after the administration
Excerpt: as §1
as §2, with “vincristine” for “bortezomib”, “(vincristine+Lentinus” for “(bortezomib+Lentinus”
(§6) Vincristine was administered to each mouse once a day at a dose of 0.2 mg/kg. Further, the Lentinus edodes mycelium extract was administered to each mouse once a day at a dose of 2 g/kg.
Further, the number of times of administration was set to once a week (on Day 0, Day 7, and Day 14) for vincristine and daily (from Day 0 to Day 15) for the Lentinus edodes mycelium extract in both the von Frey test and the cold plate test below.
Evaluation was performed in the same manner as in the test with oxaliplatin in Example 1. Referring to FIG. 5, the horizontal axis indicates an elapsed time after administration (days) and the vertical axis indicates the avoidance response (scores). Open circles with a solid line represent the control group. Filled circles with a solid line represent the group in which only vincristine was administered. Open squares with a dash line represent the group in which vincristine and the Lentinus edodes mycelium extract were administered at the same time (vincristine+Lentinus edodes mycelium extract administration group). When the difference with the control group was determined to be significant using a significance level of 5%, the data were marked by “*”.
as §4

[6] = tested on: Peripheral Sensory Neuropathy Induced by Vincristine in Mice; experiment: cold plate test, vincristine-induced peripheral sensory neuropathy; conditions: vincristine 0.2 mg/kg once a day alone; Day 3
Protocol: as §5
In the present test, the mice were divided into three groups by a difference in test objects. As in Example 1, male Balb/c mice of 6 to 7 weeks old were used. The mice were divided into a total of three groups, a control group, a vincristine
administration group, and a vincristine and Lentinus edodes mycelium extract administration group (vincristine+Lentinus edodes mycelium extract administration group).
as §6
Evaluation was performed in the same manner as in the test with oxaliplatin in Example 1. Referring to FIG. 6, the horizontal axis indicates the elapsed time after administration (days) and the vertical axis indicates the avoidance response time (seconds). Open circles with a solid line represent the control group. Filled circles with a solid line represent the group in which only vincristine was administered. Open squares with a dash line represent the group in which vincristine and the Lentinus edodes mycelium extract were administered at the same time (vincristine+Lentinus edodes mycelium extract administration group). When the difference with the control group was determined to be significant using a significance level of 5%, the data were marked by “*”.
as §4

CC(C)C[C@H](NC(=O)[C@H](Cc1ccccc1)NC(=O)c1cnccn1)B(O)O [bortezomib]
avoidance response (scores), von Frey test [1]: significantly increased | latency to the cold stimulation (avoidance response time), cold plate test [2]: significantly reduced

O=C1[O][Pt]2([NH][C@@H]3CCCC[C@H]3[NH]2)[O]C1=O [oxaliplatin]
avoidance response (scores), von Frey test [3]: significantly increased | latency to the cold stimulation (avoidance response time), cold plate test [4]: significantly reduced

CC[C@]1(O)C[C@H]2CN(CCc3c([nH]c4ccccc34)[C@@](C(=O)OC)(c3cc4c(cc3OC)N(C=O)[C@H]3[C@@](O)(C(=O)OC)[C@H](OC(C)=O)[C@]5(CC)C=CCN6CC[C@]43[C@@H]65)C2)C1 [vincristine]
avoidance response (scores), von Frey test [5]: significantly increased | latency to the cold stimulation (avoidance response time), cold plate test [6]: significantly reduced
